Several values for one entry are separate records, joined by “and”; a condition that tells them apart may be missing. Equal values may be shown once.
Legend:
Rat DHODH = Rat DHODH (Rattus norvegicus, UniProt Q63707); test: Cell-free multi-species DHODH enzyme inhibition assay, rat; assay type: biochemical; conditions: n=1
[1] = tested on: MOLM-13 disseminated CDX AML model; test: MOLM-13 CDX synergy with anti-CD38 immunotherapy; assay type: in vivo, NCG mice; conditions: HOSU53 10 mpk qd; event 1 = death; 10 mg/kg
Method: Male 8- to 12-week-old male NCG mice were engrafted with 1 × 10^5 cells via tail vein i.v. injection. […] Figure 7, B and C, and Supplemental Figure 7, A and B, share 2 combined vehicle groups (n = 16 total).
Supplemental Figure S.7. […] Using the
daratumumab (Dara) (A) or biwk 2.5 mg/kg i.p isatuximab, Isa (B) anti-CD38 antibodies or a
Treatment was stopped at day
80. Adjusted FDR p-value *<0.05, nonsignificant (ns) ≥0.05.
Both Supplementary Figure S.7, A and B share the same vehicle and 4 mg/kg
(1 picture or pasted object on this page, not shown here)

CYP 2D6 = CYP 2D6 (Homo sapiens, UniProt P10635); test: CYP inhibition 2D6; assay type: in vitro ADME
Description: Supplement jciinsight-9-173646-s083.xlsx, sheet "Supplemental Table S.2." | column: HOSU-53

Chain of Rat DHODH (Q63707 whole entry): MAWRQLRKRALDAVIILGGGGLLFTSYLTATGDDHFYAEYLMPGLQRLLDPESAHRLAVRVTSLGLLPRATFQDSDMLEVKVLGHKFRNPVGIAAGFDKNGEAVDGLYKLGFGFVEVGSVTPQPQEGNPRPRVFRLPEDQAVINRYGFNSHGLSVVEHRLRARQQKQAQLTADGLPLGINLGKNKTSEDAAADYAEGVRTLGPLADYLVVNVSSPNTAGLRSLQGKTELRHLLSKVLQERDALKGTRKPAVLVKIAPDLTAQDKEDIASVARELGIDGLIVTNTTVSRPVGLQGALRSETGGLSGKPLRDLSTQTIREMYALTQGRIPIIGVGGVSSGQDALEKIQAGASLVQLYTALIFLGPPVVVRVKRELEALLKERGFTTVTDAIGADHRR
Chain of CYP 2D6 (P10635 whole entry): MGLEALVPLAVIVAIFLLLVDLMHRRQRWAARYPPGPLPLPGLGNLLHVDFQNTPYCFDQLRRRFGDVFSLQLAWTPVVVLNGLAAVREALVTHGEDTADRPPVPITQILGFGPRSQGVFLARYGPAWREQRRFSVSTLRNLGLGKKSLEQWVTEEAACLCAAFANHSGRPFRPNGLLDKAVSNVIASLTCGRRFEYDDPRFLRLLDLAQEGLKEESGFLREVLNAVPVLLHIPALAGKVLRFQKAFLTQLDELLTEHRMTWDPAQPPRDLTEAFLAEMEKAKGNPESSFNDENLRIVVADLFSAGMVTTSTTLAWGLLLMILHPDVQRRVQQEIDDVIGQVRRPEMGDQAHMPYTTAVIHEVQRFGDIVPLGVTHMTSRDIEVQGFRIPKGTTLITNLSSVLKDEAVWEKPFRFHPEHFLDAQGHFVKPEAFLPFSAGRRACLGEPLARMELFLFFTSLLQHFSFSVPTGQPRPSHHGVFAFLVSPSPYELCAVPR

CCCCOc1cccc(-c2ccc(-c3cc(C(=O)O)c4cc(F)ccc4n3)cc2)c1 [HOSU-53]
IC50 (Rat DHODH): 0.00765 µM
Day of Study (survival, per animal) [1]: 57 days and 64 days and 43 days and 63 days and 58 days and 62 days and 65 days
IC50 (CYP 2D6): 30.1 µM

From publication PMC11141866, “Pyrimidine depletion enhances targeted and immune therapy combinations in acute myeloid leukemia” (JCI Insight, 2024)
